Laboratory results published in PMC11768629, “Potential Interaction of Pinocembrin with Drug Transporters and Hepatic Drug-Metabolizing Enzymes” (Pharmaceuticals, 2025).
Read-outs that look alike come from different tables or passages of the source.

Legend:
hOAT3 = target: T1, hOAT3 (Homo sapiens, UniProt Q8TCC7); test: Pinocembrin treatment followed by 3H-estrone sulfate accumulation in hOAT3-MDCK cells; type: cell-based; conditions: 1, 10 and 50 μM for 24 h, concentration-dependent, compared with vehicle
T1 construct: host or cells: MDCK
T1 sequence (Q8TCC7 1-542): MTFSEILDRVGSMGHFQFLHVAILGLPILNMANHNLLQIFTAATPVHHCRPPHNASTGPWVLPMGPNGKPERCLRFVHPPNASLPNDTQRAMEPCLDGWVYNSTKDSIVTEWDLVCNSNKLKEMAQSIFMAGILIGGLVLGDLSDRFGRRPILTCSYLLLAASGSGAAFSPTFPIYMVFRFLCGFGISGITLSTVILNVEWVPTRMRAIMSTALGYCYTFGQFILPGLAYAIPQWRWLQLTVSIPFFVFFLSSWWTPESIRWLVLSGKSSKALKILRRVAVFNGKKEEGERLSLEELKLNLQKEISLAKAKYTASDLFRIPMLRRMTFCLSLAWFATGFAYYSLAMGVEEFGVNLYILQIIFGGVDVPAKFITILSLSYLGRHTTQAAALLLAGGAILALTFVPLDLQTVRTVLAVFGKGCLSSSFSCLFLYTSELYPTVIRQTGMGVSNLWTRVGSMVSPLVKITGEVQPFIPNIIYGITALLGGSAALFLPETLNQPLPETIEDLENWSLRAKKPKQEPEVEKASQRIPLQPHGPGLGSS
Experimental: The hOAT1-MDCK cells and hOAT3-MDCK cells were treated with 1, 10, and 50 μM pinocembrin for 24 h, followed by a measurement of ^3H-PAH and ^3H-estrone sulfate cellular accumulation. […] The inhibitory effect of pinocembrin occurred in a concentration-dependent manner.
A cell monolayer comprising hOAT1-MDCK, hOAT3-MDCK, hOCT1-CHO-K1, hOCT2-CHO-K1, hMATE1-CHO-K1, hMATE2-CHO-K1, and mock cells were utilized for the uptake experiments. The cells were washed three times with a buffer containing (in mM) 140 NaCl, 5 KCl, 0.4 MgSO4, 0.5 MgCl2, 1 CaCl2, 0.3 Na2HPO4, 0.4 KH2PO4, 6 D-glucose, and 4 NaHCO3 at pH 7.4 and incubated at 37 °C for 15 min. After incubation, the hOAT1-MDCK and hOAT3-MDCK cells were incubated for 10 min with ^3H-PAH and ^3H-estrone sulfate, a substrate of hOAT1 and hOAT3, respectively. The hOCT1-CHO-K1 and hOCT2-CHO-K1 cells were incubated with ^3H-MPP^+, a substrate of OCT1 and OCT2, for five minutes. The functions of MATE1 and MATE2 were determined by incubating the hMATE1-CHO-K1 and hMATE2-CHO-K1 cells with a buffer containing ^3H-MPP^+, a substrate of MATE1 and MATE2, at pH 8.5 for five minutes. The cells were washed three times with an ice-cold buffer to stop the transport function. […] The samples were collected and transferred to vials containing a liquid scintillation cocktail to measure radioactivity by a β-counter (Packard BioScience, Wellesley, MA, USA). […]

CYP3A4 = conditions: cited from earlier work

For O=C1C[C@@H](c2ccccc2)Oc2cc(O)cc(O)c21 [pinocembrin], the “3H-estrone sulfate accumulation after pinocembrin treatment” value (hOAT3) is given as “significantly decreased”, the “effect on the activity of CYP3A4” value (CYP3A4) is given as “inhibits the activities” and the “effect on the activity of CYP3A4” value (CYP3A4; concentrations of 1–5 µM) is given as “shows an inhibitory effect”.
